# Experimental data from article PMC4490105 (Cell reports, 2015).
# What was measured:
# [1] = system: influenza A/PR/8/34 (PR8); conditions: ref Shirey et al., 2013; cited from earlier work
# TLR7 = experiment: R848; assay type: cell-based, mouse; conditions: murine macrophages; R848 (2.85 μM); Figure 2E, F
# [2] = target: NF-kB activator 1 CC loop decoy peptide SEFIR CC loop (Homo sapiens) (UniProt O43734); experiment: SPR; conditions: cited from earlier work
# Chain of IL-17RA (Q96F46 33-866): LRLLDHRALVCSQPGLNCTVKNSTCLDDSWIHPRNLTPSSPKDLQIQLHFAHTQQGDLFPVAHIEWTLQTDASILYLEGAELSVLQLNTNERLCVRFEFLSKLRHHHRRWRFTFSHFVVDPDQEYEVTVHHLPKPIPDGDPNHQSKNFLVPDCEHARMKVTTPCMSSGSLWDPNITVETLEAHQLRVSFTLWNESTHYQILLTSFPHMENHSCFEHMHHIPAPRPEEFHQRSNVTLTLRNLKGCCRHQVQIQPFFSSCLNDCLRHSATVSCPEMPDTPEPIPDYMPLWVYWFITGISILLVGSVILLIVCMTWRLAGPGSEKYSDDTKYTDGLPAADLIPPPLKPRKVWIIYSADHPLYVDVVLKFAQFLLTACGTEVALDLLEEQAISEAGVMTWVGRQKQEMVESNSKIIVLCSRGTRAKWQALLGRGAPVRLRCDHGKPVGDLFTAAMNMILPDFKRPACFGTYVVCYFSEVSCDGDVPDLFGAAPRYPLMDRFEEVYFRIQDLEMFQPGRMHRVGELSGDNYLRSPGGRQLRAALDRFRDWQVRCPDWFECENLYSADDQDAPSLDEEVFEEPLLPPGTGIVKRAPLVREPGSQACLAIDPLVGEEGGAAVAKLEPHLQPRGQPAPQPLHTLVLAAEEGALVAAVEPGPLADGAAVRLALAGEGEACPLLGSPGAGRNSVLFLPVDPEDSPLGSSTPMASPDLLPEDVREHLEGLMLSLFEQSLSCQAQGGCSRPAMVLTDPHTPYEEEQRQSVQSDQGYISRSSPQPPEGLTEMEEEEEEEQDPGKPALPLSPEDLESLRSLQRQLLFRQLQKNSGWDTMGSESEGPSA
compound,measurement,setting,value
CCCCCC/C=C\CCCCCCCCCC(=O)N[C@H]1[C@H](OC[C@H]2O[C@H](OP(=O)(O)O)[C@H](NC(=O)CC(=O)CCCCCCCCCCC)[C@@H](OCCCCCCCCCC)[C@@H]2O)O[C@H](COC)[C@@H](OP(=O)(O)O)[C@@H]1OCC[C@@H](CCCCCCC)OC [Eritoran],"Protection from PR8 infection, TLR2−/− mice",[1],could not be protected
same,"Protection from PR8 infection, mice",[1],protected mice from PR8 infection
CCOCc1nc2c(N)nc3ccccc3c2n1CC(C)(C)O [R848],Induction of TNF-α and IL-6,TLR7,induced robust production
IL-17RA (from UniProt Q96F46),Kd,[2],117 µM
